In patent US6943170B2, “N-cycloalkylglycines as HIV protease inhibitors” (Bristol-Myers Squibb Company, priority 2002, dated 2005):
Converted amounts (≈) assume the structure as drawn.

System: HIV-1 (RF)
Experiment: HIV RNA assay: microplate based compound evaluation in HIV-1 infected MT-2 cells
Assay type: cell-based
Conditions: Human immunodeficiency virus 1, MT2, 72 h; HIV-1 (RF) infected MT-2 cells, 3 days culture; value used to standardize the virus inoculum; read-out: IC90 (concentration of compound required to reduce the HIV RNA level by 90%)
Procedure: Plasmid PDAB 72 containing both gag and pol sequences of BH10 (bp 113-1816) cloned into PTZ 19R was prepared according to Erickson-Vitanen et al. AIDS Research and Human Retroviruses 1989, 5, 577. The plasmid was linearized with Bam HI prior to the generation of in vitro RNA transcripts using the Riboprobe Gemini system II kit (Promega) with T7 RNA polymerase. Synthesized RNA was purified by treatment with RNase free DNAse (Promega), phenol-chloroform extraction, and ethanol precipitation. RNA transcripts were dissolved in water, and stored at −70EC. The concentration of RNA was determined from the A260.
Biotinylated capture probes were purified by HPLC after synthesis on an Applied Biosystems (Foster city, Calif.) DNA synthesizer by addition of biotin to the 5N terminal end of the oligonucleotide, using the biotin-phosphoramidite reagent of Cocuzza, Tet. Lett. 1989, 30, 6287. […]
MT-2 and MT-4 cells were maintained in RPMI 1640 supplemented with 5% fetal calf serum (FCS) for MT-2 cells or 10% FCS for MT-4 cells, 2 mM L-glutamine and 50 μg/mL gentamycin, all from Gibco. […] Infectious titers of HIV-1 (RF) stocks were 1-3×10^7 PFU (plaque forming units)/mL as measured by plaque assay on MT-2 cells (see below). […]

Work on `Nc1ccn([C@H]2CC[C@@H](CO)O2)c(=O)n1` [ddC, dideoxycytidine] yielded an IC90 of 0.2 µg/mL (≈ 0.947 µM).
